We go through 18 molecules from ChEMBL document CHEMBL2331375, “Design, Synthesis, and Pharmacological Evaluation of Fluorescent and Biotinylated Antagonists of ρ1 GABAC Receptors” (ACS Med Chem Lett, 2013).

Active and inactive are the calls of the source. The rule behind the calls is not given here.

For assay [1], the species on record is Homo sapiens. The experiment in a line: Selectivity for human GABAC rho1 receptor over human GABAA alpha1beta2gamma2L receptor.
The target in assay [2] is GABA-A receptor; alpha-1/beta-2/gamma-2 (Homo sapiens) (UniProt P14867+P47870+P18507). Kind of assay: Antagonist activity at human GABAA alpha1beta2gamma2L receptor expressed in Xenopus laevis oocytes assessed as inhibition of GABA-induced current at 300 uM by two electrode voltage clamp assay relative to control. The assay is classed as cell-based. As to conditions: Oocyte.

The target in assay [3] is T1, Gamma-aminobutyric acid receptor subunit rho-1 (Homo sapiens, UniProt P24046). Kind of assay: Antagonist activity at human GABAC rho1 receptor expressed in Xenopus laevis oocytes assessed as inhibition of GABA-induced current by two electrode voltage clamp assay. In kind it is cell-based, Oocyte.
In assay [4] the target is T1, Gamma-aminobutyric acid receptor subunit rho-1. The experiment in a line: Antagonist activity at human GABAC rho1 receptor expressed in Xenopus laevis oocytes assessed as inhibition of GABA-induced current preincubated for 5 mins by two electrode voltage clamp assay. In kind it is cell-based, Oocyte. (Two-electrode voltage clamp holds a large cell at a set potential and records current.)

The target is the same in assay [5]. Kind of assay: Antagonist activity at human GABAC rho1 receptor expressed in Xenopus laevis oocytes assessed as inhibition of GABA-induced current at 600 uM by two electrode voltage clamp assay relative to control. In kind it is cell-based. Particulars: Oocyte.
Assay [6] shares this target. The experiment in a line: Antagonist activity at human GABAC rho1 receptor expressed in Xenopus laevis oocytes assessed as inhibition of GABA-induced current at 300 uM by two electrode voltage clamp assay relative to control. The assay is classed as cell-based. As to conditions: Oocyte.
Assay [7] has the same target. Kind of assay: Agonist activity at GABAC rho1 receptor (unknown origin).
The target is the same in assay [8]. Kind of assay: Partial agonist activity at GABAC rho1 receptor (unknown origin).
In assay [9] the target is GABA-A receptor; agonist GABA site. The experiment in a line: Agonist activity at GABAA receptor (unknown origin). In kind it is protein-complex assay, Homo sapiens.
Assay [10] in a line: Agonist activity at GABAC receptor (unknown origin) expressed in Xenopus laevis oocytes. In kind it is cell-based. Particulars: Homo sapiens, Oocyte.

T1 sequence (P24046 whole entry): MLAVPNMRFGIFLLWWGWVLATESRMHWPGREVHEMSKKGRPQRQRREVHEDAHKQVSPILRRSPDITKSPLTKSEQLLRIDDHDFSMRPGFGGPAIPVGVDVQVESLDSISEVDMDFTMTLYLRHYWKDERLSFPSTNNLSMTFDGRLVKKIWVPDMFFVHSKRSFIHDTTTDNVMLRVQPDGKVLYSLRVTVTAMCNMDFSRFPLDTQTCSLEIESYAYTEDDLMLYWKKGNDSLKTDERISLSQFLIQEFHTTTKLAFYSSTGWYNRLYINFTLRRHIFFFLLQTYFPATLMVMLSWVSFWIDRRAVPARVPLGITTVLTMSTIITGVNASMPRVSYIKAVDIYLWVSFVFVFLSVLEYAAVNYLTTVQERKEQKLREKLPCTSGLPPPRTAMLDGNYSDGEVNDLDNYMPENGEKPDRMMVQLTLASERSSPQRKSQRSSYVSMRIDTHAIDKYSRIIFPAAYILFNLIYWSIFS

For the molecule `CCCCP(=O)(O)C1=CC[C@H](NC(=O)CCCCCNC(=O)CCC2=C3C(C)=CC(C)=[N+]3[B-](F)(F)n3c(C)cc(C)c32)C1`, in assay [1], the Selectivity ratio was > 100. The inhibition (in general, the relative decrease from the control value, in per cent) in [2] is “inactive”. Further, the IC50 (commonly the midpoint of a concentration-inhibition curve) came to 103 µM in assay [3] and 58.6 µM in assay [4].
For the molecule `CCCCP(=O)(O)C1=CC[C@H](NC(=O)CCCCCCCNC(=O)c2ccccc2NC)C1`, the inhibition in [5] was 24%.
For `CCCCP(=O)(O)C1=CC[C@@H](N)C1`, in assay [6], the inhibition turned out to be 92%. Further, the inhibition result in assay [2] is “inactive”.
As for `CCCCP(=O)(O)C1=CC[C@H](NC(=O)CCCCNC(=O)c2ccccc2NC)C1`, the inhibition in assay [5] is 31%.
Regarding `Cc1nc[nH]c1CC(=O)O`, the EC50 (as a rule, the concentration giving half of the maximal effect) in assay [7] was determined as 22 µM. This counts as double-digit micromolar.
With `NCc1cc(=O)[nH]o1` [MUSCIMOL], the EC50 in assay [8] was determined as 2.3 µM; in assay [9], 27 µM; in assay [10], 2 µM.
Turning to `CCCCP(=O)(O)C1=CC[C@H](NC(=O)CCCC[C@@H]2SC[C@@H]3NC(=O)N[C@@H]32)C1`, the inhibition entry in [6] is “inactive”.
Take `CCCCP(=O)(O)C1=CC[C@H](NC(=O)CCCCCNC(=O)c2ccccc2NC)C1`: the inhibition in [5] turned out to be 62%. The inhibition result in assay [2] is “inactive”.
Regarding `NC[C@@H]1C[C@@H]1C(=O)O`, a half-maximal effect in [7] (EC50) was put at 39.7 µM.
`O=C(CCCC[C@@H]1SC[C@@H]2NC(=O)N[C@@H]21)NCCCCCC(=O)NCc1cc(O)no1`: the EC50 in assay [10] came out at 20 µM.
For the molecule `CCCCP(=O)(O)C1=CC[C@H](N)C1`, the inhibition in [6] stood at 97%. Besides, the inhibition entry in assay [2] is “inactive”. Besides, the IC50 in [3] is 9.76 µM.
Consider `CCCCP(=O)(O)C1=CC[C@H](NC(=O)CCCCCCCCCCNC(=O)c2ccccc2NC)C1`, for which, in assay [5], the inhibition stood at 8%.
On to `CCCCP(=O)(O)C1=CC[C@H](NC(=O)CNC(=O)c2ccccc2NC)C1`, for which the inhibition in assay [5] turned out to be 8%.
As for `CCCCP(=O)(O)C1=CC[C@H](NC(=O)CCCNC(=O)c2ccccc2NC)C1`, the inhibition in assay [5] was found to be 23%.
For the molecule `CCCCP(=O)(O)C1=CC[C@@H](NC(=O)CCCCCNC(=O)c2ccccc2NC)C1`, the inhibition in assay [5] amounted to 56%. Besides, in assay [2], the inhibition result is “inactive”.
Regarding `CCCCP(=O)(O)C1=CC[C@H](NC(=O)CCCCCNC(=O)CCCC[C@@H]2SC[C@@H]3NC(=O)N[C@@H]32)C1`, the inhibition in [2] amounted to 9%. Moreover, the IC50 in [3] worked out at 148 µM; in assay [4], 76.5 µM.
On to `CCCCP(=O)(O)C1=CC[C@H](NC(=O)CCCCCCNC(=O)c2ccccc2NC)C1`, for which, in assay [5], the inhibition was 55%.
As to `CCCCP(=O)(O)C1=CC[C@H](NC(=O)CCCCCNc2ccc([N+](=O)[O-])c3nonc23)C1`, in assay [2], the inhibition entry is “inactive”. Also, the IC50 is 281 µM in assay [3] and 193 µM in assay [4].
